According to patent US11999676B2, “Vesicular monoamine transporter-2 ligands and their use in the treatment of psychostimulant abuse” (priority 2016, dated 2024):
Like-named read-outs stand apart in the source and are kept apart here.

Legend:
[1] = Microsomal stability assay, rat liver microsomes; settings: for CLint scaled at 0.08 µM / half-life at 0.08 µM: female, Sprague-Dawley, rat, liver microsomes; for CLint scaled at 0.08 µM: pH 7.4, Microsomal stability assays: Clearance; for half-life at 0.08 µM: pH 7.4, Microsomal stability assays: Half-life
Procedure: Each plate holds triplicate samples of two controls (0.4 mM) and up to 14 compounds (0.08 mM) in rat and human liver microsomes. Aliquots of each well of the plate (175 μl of each well) were transferred from the master plate into 5 assay plates. For 0-hr time point, pre-cooled (4° C.) internal standard (437.5 μL, 2 μM caffeine in methanol) was added to the first plate before the reaction starts. NADPH regenerating system solution A (6.05 ml, Fisher Scientific, #NC9255727) was combined with NADPH regenerating system solution B (1.21 ml, Fisher Scientific, #NC9016235) in potassium phosphate buffer (15.8 ml, 0.1 M, pH 7.4, 37° C.). The resulting NADPH solution (43.8 μl) was added to each well of all the 96-well assay plates and mixed with pipette briefly making the final protein and compound concentrations respectively: 0.5 mg/ml, 0.08 μM (0.4 μM for controls). Plates were sealed, and all plates except the 0-hr plate were incubated at 37° C., shaken at a speed of 60 rpm. A single assay plate was tested at each time point: 0.5 hr, 1 hr, 2 hr, and 4 hr. At each time point, 437.5 μL of pre-cooled internal standard was added each well of the plate to quench the reaction. […] 120 μl supernatant was transferred to a 96-well plate, centrifuged again and analyzed by UPLC-MS (Waters Inc., Milford, MA). The compounds and internal standard were detected by selected ion recording (SIR).
The amount of material was measured as a ratio of peak area to the internal standard and graphed. Using the slope from the initial linear portion of this curve, the degradation rate constant is calculated using equation [1].

[2] = biological target: VMAT2 (Rattus norvegicus (Rat), UniProt Q01827); assay: [3H]Dopamine ([3H]DA) uptake assay, vesicular preparation; assay type: biochemical
[3] = [3H]DA uptake, rat, read-out: VMAT2 (rat) Inhibition: Mean Ki ± Standard Deviation
[4] = [3H]DA uptake (Ki) VMAT2, rat striatal synaptic vesicles

| SMILES | CLint scaled at 0.08 µM [1] | half-life at 0.08 µM [1] | also measured |
| --- | --- | --- | --- |
| CC(Cc1ccc(NC=O)cc1)NCCCc1ccccc1 (centres unmarked) [Compound 78] | 167 mL/min/kg | 18 min |  |
| CC(Cc1ccc(N)cc1)NCCCc1ccccc1 (centres unmarked) [Compound 106] | 17.9 mL/min/kg | 156 min |  |
| CC(Cc1ccc(F)cc1)NCCCc1ccc(NC=O)cc1 (centres unmarked) [Compound 71] | 97.2 mL/min/kg | 30 min |  |
| CC(Cc1ccc(F)cc1)NCCCc1ccnc2ccccc12 (centres unmarked) [Compound 163] | > 400 mL/min/kg | < 6 min |  |
| CC(Cc1ccc(N)cc1)NCCCc1ccncc1 (centres unmarked) [Compound 103] |  |  | Ki [2, 3]: 378 ± 30 nM |
| CC(Cc1ccncc1)NCCCc1ccc(Br)cc1 (centres unmarked) [Compound 169] | 200 mL/min/kg | 12 min |  |
| CC(Cc1ccc(F)cc1)NCCCc1ccccc1 (centres unmarked) [Compound 127] | > 400 mL/min/kg | < 6 min |  |
| CC(Cc1ccccc1)NCCCc1ccc(Br)cc1 (centres unmarked) [Compound 219] | > 400 mL/min/kg | < 6 min |  |
| CC(Cc1ccc(F)cc1)NCCCc1ccc(F)cc1 (centres unmarked) [Compound 191] | 195 mL/min/kg | 12 min |  |
| CC(Cc1ccc([N+](=O)[O-])cc1)NCCCc1ccccc1 (centres unmarked) [Compound 116] | > 400 mL/min/kg | < 6 min |  |
| CC(Cc1ccccc1)NCCCc1ccc(O)cc1 (centres unmarked) [Compound 224] | > 400 mL/min/kg | < 6 min |  |
| CC(Cc1ccccc1)NCCCc1ccncc1 (centres unmarked) [Compound 205] | 90.6 mL/min/kg | 30 min |  |
| CC(Cc1ccccc1)NCCCc1ccc(S)cc1 (centres unmarked) [Compound 217] |  |  | Microsomal stability assays: Clearance [1]: 170 mL/min/kg |
| CC(Cc1ccccc1)NCCCc1ccc(-c2cncnc2)cc1 (centres unmarked) [Compound 203] | 248 mL/min/kg | 12 min |  |
| CC(C)C(Cc1ccc(F)cc1)NCCCc1ccc(Br)cc1 (centres unmarked) [Compound 141] | > 450 mL/min/kg | < 6 min |  |
| C[C@H](Cc1ccc(Br)cc1)NCCCc1ccccc1 [Compound 12] |  |  | Ki [2, 4]: 6 ± 1 nM |
| CC(Cc1ccc(F)cc1)NCCCc1ccc(Cl)cc1 (centres unmarked) [Compound 189] | > 400 mL/min/kg | < 6 min |  |

| SMILES | CLint scaled at 0.08 µM [1] | half-life at 0.08 µM [1] | also measured |
| --- | --- | --- | --- |
| COc1ccc(C[C@H](C)NCCCc2ccccc2)cc1 [Compound 28] |  |  | Ki [2, 4]: 20 ± 1 nM |
| CC(Cc1ccc([N+](=O)[O-])cc1)NCCCc1ccc(Br)cc1 (centres unmarked) [Compound 122] | > 400 mL/min/kg | < 6 min |  |
| CC(Cc1ccc(F)cc1)NCCCn1ccnc1 (centres unmarked) [Compound 135] | < 7 mL/min/kg | > 240 min |  |
| CS(=O)(=O)c1ccc(CCCNC(CF)Cc2ccc(F)cc2)cc1 (centres unmarked) [Compound 137] |  |  | Ki [2, 3]: 182 ± 56.7 nM |
| CC(C)C(Cc1ccc(F)cc1)NCCCc1ccccc1 (centres unmarked) [Compound 136] |  |  | Ki [2, 3]: 386 ± 66.4 nM |
| CC(Cc1ccc(F)cc1)NCCCc1ccc(NC2CCC2)cc1 (centres unmarked) [Compound 93] |  |  | Ki [2, 3]: 129 ± 7.41 nM |
| C[C@@H](Cc1ccc(Br)cc1)NCCCc1ccccc1 [Compound 13] |  |  | Ki [2, 4]: 32 ± 4 nM |
| CC(Cc1ccc([N+](=O)[O-])cc1)NCCCc1ccncc1 (centres unmarked) [Compound 114] | 95.9 mL/min/kg | 30 min |  |
| CC(Cc1ccc(F)cc1)NCCCc1ccc(S(C)(=O)=O)cc1 (centres unmarked) [Compound 139] | < 7 mL/min/kg | > 240 min |  |
| CC(Cc1ccccc1)N(CCCc1ccc(O)cc1)CCCc1ccc(O)cc1 (centres unmarked) [Compound 225] |  |  | Ki [2, 3]: 4.99 ± 1.19 nM |
| CC(Cc1ccc(F)cc1)NCCCc1ccc([S+](C)[O-])cc1 (centres unmarked) [Compound 144] |  |  | Ki [2, 3]: 178 ± 78.9 nM |
| CC(Cc1ccc(F)cc1)NCCCc1ccc(N(C)C)cc1 (centres unmarked) [Compound 157] | > 400 mL/min/kg | < 6 min |  |
| CC(Cc1ccccc1)NCCCc1ccc(-c2cccs2)cc1 (centres unmarked) [Compound 206] |  |  | Ki [2, 3]: 125 ± 25.4 nM |
| COc1ccc(CCCNC(C)Cc2ccncc2)cc1 (centres unmarked) [Compound 173] | 126 mL/min/kg | 24 min |  |
| CC(C)Nc1ccc(CCCNC(C)Cc2ccc(F)cc2)cc1 (centres unmarked) [Compound 65] |  |  | Ki [2, 3]: 112 ± 16.8 nM |
| COc1ccc(C[C@@H](C)NCCCc2ccccc2)cc1 [Compound 27] |  |  | Ki [2, 4]: 45 ± 4 nM |
